Measurements reported in patent publication US20240277698A1, “METHODS OF USING ALDOSTERONE SYNTHASE INHIBITORS” (CINCOR PHARMA, INC., priority 2021, published 2024).

Biological target: T1, aldosterone synthase (Homo sapiens, UniProt P19099)
T1 construct: synthesized in the adrenal cortex by aldosterone synthase; endogenous in cells; host or cells: adrenal cortex of healthy human subjects (in vivo, oral dosing)
T1 sequence (P19099 25-503): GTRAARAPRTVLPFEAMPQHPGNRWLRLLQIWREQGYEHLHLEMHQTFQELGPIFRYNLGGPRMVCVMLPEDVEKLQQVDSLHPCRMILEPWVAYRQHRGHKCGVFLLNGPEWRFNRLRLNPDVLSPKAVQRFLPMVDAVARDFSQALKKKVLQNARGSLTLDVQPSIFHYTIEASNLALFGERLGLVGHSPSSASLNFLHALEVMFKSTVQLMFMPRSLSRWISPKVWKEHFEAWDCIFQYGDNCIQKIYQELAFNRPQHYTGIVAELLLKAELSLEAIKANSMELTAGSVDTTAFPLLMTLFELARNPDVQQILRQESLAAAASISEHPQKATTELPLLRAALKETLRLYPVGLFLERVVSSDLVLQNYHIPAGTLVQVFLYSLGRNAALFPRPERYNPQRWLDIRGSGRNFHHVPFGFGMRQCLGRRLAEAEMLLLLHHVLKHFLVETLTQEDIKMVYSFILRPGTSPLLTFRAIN
Experiment: MAD study: plasma aldosterone and precursors (18-hydroxycorticosterone, corticosterone, 11-deoxycorticosterone)
Type: in vivo
Conditions: mean; for Plasma 11-deoxycorticosterone, Day −1 predose / Plasma 18-hydroxycorticosterone, Day −1 predose / Plasma aldosterone, Day −1 predose / Plasma corticosterone, Day −1 predose: baseline
Description: For each subject, the study consisted of: • A screening period of up to 28 days; • A 5-day inpatient run-in period during which subjects adhered to a controlled, standardized diet and underwent baseline PD assessments; • A 15-day inpatient treatment period, during which subjects received (R)-compound 1 or placebo once daily for 10 days while adhering to a controlled, standardized diet, followed by PK and PD sampling over an additional 5 days; and • A follow-up visit 3 days (1 day) after discharge from the clinical unit. • A cortisol stimulation test (Cohorts 1 and 2 only) and standing aldosterone assessment (all cohorts) were performed on Days 1 and 10. Serial blood samples for PK and PD were obtained prior to and at specified time points over 24 hours after dosing on Day 1 as well as prior to and at specified time points over 120 hours after dosing on Day 10. In addition, blood samples for PK were collected prior to dosing on Days 8 and 9. Urine for PK and PD measurements was collected over 24 hours starting just prior to dosing on Day 1 as well as over 120 hours starting just prior to dosing on Day 10. […]

SMILES: CCC(=O)N[C@@H]1CCCc2c(-c3ccc4c(c3)CCC(=O)N4C)cncc21 [(R)-Compound 1, (R)—N-(4-(1-methyl-2-oxo-1,2,3,4-tetrahydroquinolin-6-yl)-5,6,7,8-tetrahydroisoquinolin-8-yl)propionamide]
- Plasma 11-deoxycorticosterone, Day −1 predose (0.5 mg QD, normal salt diet): 52.625 pg/mL
- Plasma 18-hydroxycorticosterone, Day −1 predose (0.5 mg QD, normal salt diet): 955.5 pg/mL
- Plasma aldosterone, Day −1 predose (0.5 mg QD, normal salt diet): 131.588 pg/mL
- Plasma corticosterone, Day −1 predose (0.5 mg QD, normal salt diet): 4302.5 pg/mL
- Plasma 11-deoxycorticosterone, Day 1, 12 hours postdose (0.5 mg QD, normal salt diet): 35.900 pg/mL
- Plasma 11-deoxycorticosterone, Day 1, predose (0.5 mg QD, normal salt diet): 50.938 pg/mL
- Plasma 11-deoxycorticosterone, Day 2, predose (0.5 mg QD, normal salt diet): 72.950 pg/mL
- Plasma 11-deoxycorticosterone, Day 10, 12 hours postdose (0.5 mg QD, normal salt diet): 70.813 pg/mL
- Plasma 11-deoxycorticosterone, Day 10, 24 hours postdose (0.5 mg QD, normal salt diet): 115.663 pg/mL
- Plasma 11-deoxycorticosterone, Day 10, predose (0.5 mg QD, normal salt diet): 112.375 pg/mL
- Plasma 11-deoxycorticosterone, Percent change from Day −1 to Day 10, predose (0.5 mg QD, normal salt diet): 161.115%
- Plasma 18-hydroxycorticosterone, Day 1, 12 hours postdose (0.5 mg QD, normal salt diet): 310.1 pg/mL
- Plasma 18-hydroxycorticosterone, Day 1, predose (0.5 mg QD, normal salt diet): 943.1 pg/mL
- Plasma 18-hydroxycorticosterone, Day 2, predose (0.5 mg QD, normal salt diet): 819.6 pg/mL
- Plasma 18-hydroxycorticosterone, Day 10, 12 hours postdose (0.5 mg QD, normal salt diet): 326.5 pg/mL
- Plasma 18-hydroxycorticosterone, Day 10, 24 hours postdose (0.5 mg QD, normal salt diet): 1016.4 pg/mL
- Plasma 18-hydroxycorticosterone, Day 10, predose (0.5 mg QD, normal salt diet): 983.1 pg/mL
- Plasma 18-hydroxycorticosterone, Percent change from Day −1 to Day 10 (0.5 mg QD, normal salt diet): 5.2%
- Plasma aldosterone, Day 1, 12 hours postdose (0.5 mg QD, normal salt diet): 56.250 pg/mL
- Plasma aldosterone, Day 1, predose (0.5 mg QD, normal salt diet): 133.013 pg/mL
- Plasma aldosterone, Day 2, predose (0.5 mg QD, normal salt diet): 80.100 pg/mL
- Plasma aldosterone, Day 10, 12 hours postdose (0.5 mg QD, normal salt diet): 83.625 pg/mL
- Plasma aldosterone, Day 10, 24 hours postdose (0.5 mg QD, normal salt diet): 143.338 pg/mL
- Plasma aldosterone, Day 10, predose (0.5 mg QD, normal salt diet): 152.875 pg/mL
- Plasma aldosterone, Percent change from Day −1 to Day 10, predose (0.5 mg QD, normal salt diet): 28.841%
- Plasma corticosterone, Day 1, 12 hours postdose (0.5 mg QD, normal salt diet): 695.6 pg/mL
- Plasma corticosterone, Day 1, predose (0.5 mg QD, normal salt diet): 3170.0 pg/mL
- Plasma corticosterone, Day 2, predose (0.5 mg QD, normal salt diet): 4490.0 pg/mL
- Plasma corticosterone, Day 10, 12 hours postdose (0.5 mg QD, normal salt diet): 1211.4 pg/mL
- Plasma corticosterone, Day 10, 24 hours postdose (0.5 mg QD, normal salt diet): 5923.8 pg/mL
- Plasma corticosterone, Day 10, predose (0.5 mg QD, normal salt diet): 4187.5 pg/mL
- Plasma corticosterone, Percent change from Day −1 to Day 10, predose (0.5 mg QD, normal salt diet): 73.0%
- Plasma 11-deoxycorticosterone, Day −1 predose (1.5 mg QD, normal salt diet): 43.489 pg/mL
- Plasma 18-hydroxycorticosterone, Day −1 predose (1.5 mg QD, normal salt diet): 1027.4 pg/mL
- Plasma aldosterone, Day −1 predose (1.5 mg QD, normal salt diet): 143.100 pg/mL
- Plasma corticosterone, Day −1 predose (1.5 mg QD, normal salt diet): 3748.3 pg/mL
- Plasma 11-deoxycorticosterone, Day 1, 12 hours postdose (1.5 mg QD, normal salt diet): 19.656 pg/mL
- Plasma 11-deoxycorticosterone, Day 1, predose (1.5 mg QD, normal salt diet): 44.711 pg/mL
- Plasma 11-deoxycorticosterone, Day 2, predose (1.5 mg QD, normal salt diet): 53.344 pg/mL
- Plasma 11-deoxycorticosterone, Day 10, 12 hours postdose (1.5 mg QD, normal salt diet): 46.733 pg/mL
- Plasma 11-deoxycorticosterone, Day 10, 24 hours postdose (1.5 mg QD, normal salt diet): 84.767 pg/mL
- Plasma 11-deoxycorticosterone, Day 10, predose (1.5 mg QD, normal salt diet): 73.322 pg/mL
- Plasma 11-deoxycorticosterone, Percent change from Day −1 to Day 10, predose (1.5 mg QD, normal salt diet): 104.945%
- Plasma 18-hydroxycorticosterone, Day 1, 12 hours postdose (1.5 mg QD, normal salt diet): 225.6 pg/mL
- Plasma 18-hydroxycorticosterone, Day 1, predose (1.5 mg QD, normal salt diet): 991.7 pg/mL
- Plasma 18-hydroxycorticosterone, Day 2, predose (1.5 mg QD, normal salt diet): 829.3 pg/mL
- Plasma 18-hydroxycorticosterone, Day 10, 12 hours postdose (1.5 mg QD, normal salt diet): 318.4 pg/mL
- Plasma 18-hydroxycorticosterone, Day 10, 24 hours postdose (1.5 mg QD, normal salt diet): 1000.1 pg/mL
- Plasma 18-hydroxycorticosterone, Day 10, predose (1.5 mg QD, normal salt diet): 1047.9 pg/mL
- Plasma 18-hydroxycorticosterone, Percent change from Day −1 to Day 10 (1.5 mg QD, normal salt diet): 6.1%
- Plasma aldosterone, Day 1, 12 hours postdose (1.5 mg QD, normal salt diet): 27.111 pg/mL
- Plasma aldosterone, Day 1, predose (1.5 mg QD, normal salt diet): 110.567 pg/mL
- Plasma aldosterone, Day 2, predose (1.5 mg QD, normal salt diet): 52.933 pg/mL
- Plasma aldosterone, Day 10, 12 hours postdose (1.5 mg QD, normal salt diet): 41.300 pg/mL
- Plasma aldosterone, Day 10, 24 hours postdose (1.5 mg QD, normal salt diet): 92.533 pg/mL
- Plasma aldosterone, Day 10, predose (1.5 mg QD, normal salt diet): 82.144 pg/mL
- Plasma aldosterone, Percent change from Day −1 to Day 10, predose (1.5 mg QD, normal salt diet): −37.405%
- Plasma corticosterone, Day 1, 12 hours postdose (1.5 mg QD, normal salt diet): 635.2 pg/mL
- Plasma corticosterone, Day 1, predose (1.5 mg QD, normal salt diet): 3988.3 pg/mL
- Plasma corticosterone, Day 2, predose (1.5 mg QD, normal salt diet): 4413.3 pg/mL
- Plasma corticosterone, Day 10, 12 hours postdose (1.5 mg QD, normal salt diet): 1417.0 pg/mL
- Plasma corticosterone, Day 10, 24 hours postdose (1.5 mg QD, normal salt diet): 6065.6 pg/mL
- Plasma corticosterone, Day 10, predose (1.5 mg QD, normal salt diet): 5677.8 pg/mL
- Plasma corticosterone, Percent change from Day −1 to Day 10, predose (1.5 mg QD, normal salt diet): 115.1%
- Plasma 11-deoxycorticosterone, Day −1 predose (2.5 mg QD, low salt diet): 72.688 pg/mL
- Plasma 18-hydroxycorticosterone, Day −1 predose (2.5 mg QD, low salt diet): 1269.6 pg/mL
- Plasma aldosterone, Day −1 predose (2.5 mg QD, low salt diet): 272.125 pg/mL
- Plasma corticosterone, Day −1 predose (2.5 mg QD, low salt diet): 6383.8 pg/mL
- Plasma 11-deoxycorticosterone, Day 1, 12 hours postdose (2.5 mg QD, low salt diet): 133.300 pg/mL
- Plasma 11-deoxycorticosterone, Day 1, predose (2.5 mg QD, low salt diet): 83.825 pg/mL
- Plasma 11-deoxycorticosterone, Day 10, 12 hours postdose (2.5 mg QD, low salt diet): 204.250 pg/mL
- Plasma 11-deoxycorticosterone, Day 10, 24 hours postdose (2.5 mg QD, low salt diet): 217.975 pg/mL
- Plasma 11-deoxycorticosterone, Day 10, predose (2.5 mg QD, low salt diet): 164.725 pg/mL
- Plasma 11-deoxycorticosterone, Percent change from Day −1 to Day 10, predose (2.5 mg QD, low salt diet): 412.560%
- Plasma 18-hydroxycorticosterone, Day 1, 12 hours postdose (2.5 mg QD, low salt diet): 230.4 pg/mL
- Plasma 18-hydroxycorticosterone, Day 1, predose (2.5 mg QD, low salt diet): 839.6 pg/mL
- Plasma 18-hydroxycorticosterone, Day 10, 12 hours postdose (2.5 mg QD, low salt diet): 339.1 pg/mL
